Data reported in ChEMBL document CHEMBL1134145, “Carbohydrate recognition of gramicidin S analogues in aqueous medium” (Bioorg Med Chem Lett, 2001).

Tests used:
[1] = Dissociation constant of compound with Fructose was determined; format: physicochemical
[2] = Dissociation constant of compound with Lactulose was determined; format: physicochemical

Row | Kd [1] [µM] | Kd [2] [µM] | SMILES
1 | 4700 | 180 | NCCC[C@@H]1NC(=O)[C@H](CC(=O)O)NC(=O)[C@@H]2CCCN2C(=O)[C@@H](Cc2ccccc2)NC(=O)[C@H](Cc2c[nH]c3ccccc23)NC(=O)[C@H](CCCN)NC(=O)[C@H](CC(N)=O)NC(=O)[C@@H]2CCCN2C(=O)[C@@H](Cc2ccccc2)NC(=O)[C@H](Cc2c[nH]c3ccccc23)NC1=O
2 | 1500 | 200 | NCCC[C@@H]1NC(=O)[C@H](CC(N)=O)NC(=O)[C@@H]2CCCN2C(=O)[C@@H](Cc2ccccc2)NC(=O)[C@H](Cc2c[nH]c3ccccc23)NC(=O)[C@H](CCCN)NC(=O)[C@H](CC(N)=O)NC(=O)[C@@H]2CCCN2C(=O)[C@@H](Cc2ccccc2)NC(=O)[C@H](Cc2c[nH]c3ccccc23)NC1=O
3 | – | 30 | NCCC[C@@H]1NC(=O)[C@H](CCC(N)=O)NC(=O)[C@@H]2CCCN2C(=O)[C@@H](Cc2ccccc2)NC(=O)[C@H](Cc2c[nH]c3ccccc23)NC(=O)[C@H](CCCN)NC(=O)[C@H](CCC(N)=O)NC(=O)[C@@H]2CCCN2C(=O)[C@@H](Cc2ccccc2)NC(=O)[C@H](Cc2c[nH]c3ccccc23)NC1=O
4 | 1500 | – | NCCC[C@@H]1NC(=O)[C@H](CC(=O)O)NC(=O)[C@@H]2CCCN2C(=O)[C@@H](Cc2ccccc2)NC(=O)[C@H](Cc2c[nH]c3ccccc23)NC(=O)[C@H](CCCN)NC(=O)[C@H](CC(=O)O)NC(=O)[C@@H]2CCCN2C(=O)[C@@H](Cc2ccccc2)NC(=O)[C@H](Cc2c[nH]c3ccccc23)NC1=O
